Experiment: flavor descriptors of compounds tasted in salt water, chicken broth, IMP/MSG and NaCl/IMP/MSG solutions

SMILES	flavor descriptors, Chicken Broth College Inn 50% reduced Na; Fat free (compound 10 ppm in chicken broth)	flavor descriptors, NaCl 0.1% IMP 0.00359 g/L / MSG 0.0508 g/L (compound 10 ppm in NaCl/IMP/MSG solution)	flavor descriptors, IMP 0.00359 g/L / MSG 0.0508 g/L (compound 20 ppm in IMP/MSG solution)
C#CCCCCCCCCCCCC(O)CC(O)COC(C)=O (stereo not drawn) [2,4-Dihydroxy-16-heptadecyn-1-yl acetate, 2,4-dihydroxy-16-heptadecyn-1-yl acetate]	Bitter	–	–
C=CCCCCCCCCCCCC(O)CC(O)COC(C)=O (stereo not drawn) [2,4-dihydroxy-16-heptadecen-1-yl acetate]	–	Very umami	Nice umami

Reference: patent US20100034944A1, “Use of Avocado Derivatives in Flavor Applications” (priority 2008, published 2010)
